Experimental data reported in patent US7452902B2, “Imidazopyridines as cyclin dependent kinase inhibitors” (Schering Corporation, priority 2002, dated 2008).

Biological target: T1, Cyclin E/CDK2 (Homo sapiens, UniProt P24941)
T1 construct: The expressed protein was approximately 34 kDa in size; made in house; host or cells: SF9 insect cells (baculovirus, pVL1393)
Assay: Cyclin E/CDK2 in vitro kinase assay (SPA, 33P-ATP, biotinylated Histone H1 peptide)
Type: biochemical
Settings: recombinant cyclin E/CDK2 from SF9 cells; 1 hour at room temperature; 8 point serial dilutions in duplicate

| Compound | IC50 |
| --- | --- |
| Brc1cnc2c(NCc3cncnc3)cc(-c3ccccc3)cn12 | 120 nM |
| Clc1ccccc1-c1cc(NCc2cncnc2)c2ncc(Br)n2c1 | 36 nM |
| Nc1ncc(CNc2cc(-c3ccccc3Cl)cn3c(Br)cnc23)cn1 | 76 nM |
